Test: xn = mol fraction of the nth substance listed
Conditions: 100 kPa, Liquid; for viscosity: Capillary tube (Ostwald / Ubbelohde) method; for mass density: Vibrating tube method

O=C1CCCO1 [γ-butyrolactone] + CCn1cc[n+](C)c1.O=S(=O)([N-]S(=O)(=O)C(F)(F)F)C(F)(F)F
Conditions	mass density [kg/m3]	viscosity [mPa·s]
293.15 K, x2 = 0	1129.49	1.86
293.15 K, x2 = 0.05	1189.18	2.57
293.15 K, x2 = 0.0995	–	3.12
293.15 K, x2 = 0.0996	1236.95	–
293.15 K, x2 = 0.1502	1277.22	3.83
293.15 K, x2 = 0.2006	1310.83	4.63
293.15 K, x2 = 0.3	–	6.64
293.15 K, x2 = 0.3001	1363.28	–
293.15 K, x2 = 0.4	–	9.2
293.15 K, x2 = 0.4021	1403.82	–
293.15 K, x2 = 0.4899	–	11.95
293.15 K, x2 = 0.4992	1434.01	–
293.15 K, x2 = 0.6103	1461.49	16.41
293.15 K, x2 = 0.6912	1478	–
293.15 K, x2 = 0.6995	–	20.33
293.15 K, x2 = 0.7817	1493.78	–
293.15 K, x2 = 0.7927	–	24.88
293.15 K, x2 = 0.8991	1510.97	30.67
293.15 K, x2 = 0.9532	–	34.26
298.15 K, x2 = 0	1124.59	1.71
298.15 K, x2 = 0.05	1184.22	2.41
298.15 K, x2 = 0.0995	–	2.94
298.15 K, x2 = 0.0996	1231.94	–
298.15 K, x2 = 0.1502	1272.16	3.61
298.15 K, x2 = 0.2006	1305.75	4.35
298.15 K, x2 = 0.3	–	6.16
298.15 K, x2 = 0.3001	1358.16	–
298.15 K, x2 = 0.4	–	8.37
298.15 K, x2 = 0.4021	1398.7	–
298.15 K, x2 = 0.4899	–	10.72
298.15 K, x2 = 0.4992	1428.88	–
298.15 K, x2 = 0.6103	1456.36	14.47
298.15 K, x2 = 0.6912	1472.86	–
298.15 K, x2 = 0.6995	–	17.71
298.15 K, x2 = 0.7817	1488.64	–
298.15 K, x2 = 0.7927	–	21.48
298.15 K, x2 = 0.8991	1505.84	26.32
298.15 K, x2 = 0.9532	–	29.01
303.15 K, x2 = 0	1119.68	1.58
303.15 K, x2 = 0.05	1179.23	2.24
303.15 K, x2 = 0.0995	–	2.71
303.15 K, x2 = 0.0996	1226.88	–
303.15 K, x2 = 0.1502	1267.09	3.3
303.15 K, x2 = 0.2006	1300.66	3.97
303.15 K, x2 = 0.3	–	5.57
303.15 K, x2 = 0.3001	1353.03	–
303.15 K, x2 = 0.4	–	7.49
303.15 K, x2 = 0.4021	1393.55	–
303.15 K, x2 = 0.4899	–	9.49
303.15 K, x2 = 0.4992	1423.73	–
303.15 K, x2 = 0.6103	1451.19	12.66
303.15 K, x2 = 0.6912	1467.67	–
303.15 K, x2 = 0.6995	–	15.38
303.15 K, x2 = 0.7817	1483.46	–
303.15 K, x2 = 0.7927	–	18.53
303.15 K, x2 = 0.8991	1500.66	22.48
303.15 K, x2 = 0.9532	–	24.66
308.15 K, x2 = 0	1114.78	1.47
308.15 K, x2 = 0.05	1174.26	2.07
308.15 K, x2 = 0.0995	–	2.48
308.15 K, x2 = 0.0996	1221.85	–
308.15 K, x2 = 0.1502	1262.03	3.03
308.15 K, x2 = 0.2006	1295.56	3.66
308.15 K, x2 = 0.3	–	5.09
308.15 K, x2 = 0.3001	1347.9	–
308.15 K, x2 = 0.4	–	6.72
308.15 K, x2 = 0.4021	1388.4	–
308.15 K, x2 = 0.4899	–	8.39
308.15 K, x2 = 0.4992	1418.56	–
308.15 K, x2 = 0.6103	1446.01	11.08
308.15 K, x2 = 0.6912	1462.49	–
308.15 K, x2 = 0.6995	–	13.34
308.15 K, x2 = 0.7817	1478.28	–
308.15 K, x2 = 0.7927	–	15.98
308.15 K, x2 = 0.8991	1495.47	19.26
308.15 K, x2 = 0.9532	–	21.15
313.15 K, x2 = 0	1109.87	1.37
313.15 K, x2 = 0.05	1169.29	1.92
313.15 K, x2 = 0.0995	–	2.32
313.15 K, x2 = 0.0996	1216.89	–
313.15 K, x2 = 0.1502	1257.03	2.81
313.15 K, x2 = 0.2006	1290.56	3.37
313.15 K, x2 = 0.3	–	4.63
313.15 K, x2 = 0.3001	1342.87	–
313.15 K, x2 = 0.4	–	6.09
313.15 K, x2 = 0.4021	1383.33	–
313.15 K, x2 = 0.4899	–	7.55
313.15 K, x2 = 0.4992	1413.46	–
313.15 K, x2 = 0.6103	1440.89	9.84
313.15 K, x2 = 0.6912	1457.37	–
313.15 K, x2 = 0.6995	–	11.77
313.15 K, x2 = 0.7817	1473.14	–
313.15 K, x2 = 0.7927	–	13.93
313.15 K, x2 = 0.8991	1490.3	16.67
313.15 K, x2 = 0.9532	–	18.26
318.15 K, x2 = 0	1104.96	1.28
318.15 K, x2 = 0.05	1164.33	1.76
318.15 K, x2 = 0.0995	–	2.12
318.15 K, x2 = 0.0996	1211.89	–
318.15 K, x2 = 0.1502	1252	2.57
318.15 K, x2 = 0.2006	1285.51	3.07
318.15 K, x2 = 0.3	–	4.15
318.15 K, x2 = 0.3001	1337.8	–
318.15 K, x2 = 0.4	–	5.46
318.15 K, x2 = 0.4021	1378.25	–
318.15 K, x2 = 0.4899	–	6.65
318.15 K, x2 = 0.4992	1408.36	–
318.15 K, x2 = 0.6103	1435.77	8.6
318.15 K, x2 = 0.6912	1452.23	–
318.15 K, x2 = 0.6995	–	10.2
318.15 K, x2 = 0.7817	1467.99	–
318.15 K, x2 = 0.7927	–	12.07
318.15 K, x2 = 0.8991	1485.13	14.42
318.15 K, x2 = 0.9532	–	15.79
323.15 K, x2 = 0	1100.05	1.2
323.15 K, x2 = 0.05	1159.37	1.66
323.15 K, x2 = 0.0995	–	2.02
323.15 K, x2 = 0.0996	1206.9	–
323.15 K, x2 = 0.1502	1247.02	2.42
323.15 K, x2 = 0.2006	1280.5	2.89
323.15 K, x2 = 0.3	–	3.89
323.15 K, x2 = 0.3001	1332.77	–
323.15 K, x2 = 0.4	–	4.97
323.15 K, x2 = 0.4021	1373.17	–
323.15 K, x2 = 0.4899	–	6.15
323.15 K, x2 = 0.4992	1403.26	–
323.15 K, x2 = 0.6103	1430.64	7.81
323.15 K, x2 = 0.6912	1447.09	–
323.15 K, x2 = 0.6995	–	9.19
323.15 K, x2 = 0.7817	1462.82	–
323.15 K, x2 = 0.7927	–	10.76
323.15 K, x2 = 0.8991	1479.92	12.78
323.15 K, x2 = 0.9532	–	13.93
